In article PMC12624743 (ACS Infectious Diseases, 2025):
≈ marks a conversion by molar mass, not a printed value.

What was measured:
[1] = test system: N. gonorrhoeae FA1090-Q1 (GyrA^S91F/D95G, ParC WT); assay: MIC by agar dilution, fluoroquinolone-resistant GyrA^S91F/D95G strain; assay type: cell-based; conditions: Neisseria gonorrhoeae
Description: Minimum inhibitory concentration (MIC) of test compounds was determined by an agar dilution method, the reference testing method for N. gonorrhoeae according to the standards of the Clinical and Laboratory Standards Institute and the CDC.

[2] = test system: N. gonorrhoeae FA1090 (ATCC 700825); assay: MIC by agar dilution, parental strain FA1090; assay type: cell-based; conditions: Neisseria gonorrhoeae, ATCC700825, parental strain FA1090, GyrA WT / ParC WT
Description: A series of isogenic N. gonorrhoeae strains was constructed that carried the specific target mutations GyrA^A92T or GyrA^D90N either alone or in combination with ParC^D86N or GyrA^S91F/D95G in a ciprofloxacin-susceptible strain, FA1090 (ATCC 700825).
All N. gonorrhoeae isolates were cultured and grown on GC agar plates or in fastidious broth (Remel, 07664). Minimum inhibitory concentration (MIC) of test compounds was determined by an agar dilution method, the reference testing method for N. gonorrhoeae according to the standards of the Clinical and Laboratory Standards Institute and the CDC. MIC values were determined after incubation at 37 °C for 48 h in 5% CO2.

`O=C(O)c1cn(C2CC2)c2cc(N3CCNCC3)c(F)cc2c1=O` [ciprofloxacin] gave an MIC [1] of 0.25 µg/mL (≈ 0.754 µM) and an MIC [2] of 0.004 µg/mL.
